Laboratory results published in ChEMBL document CHEMBL6096670, “Design, synthesis and biological evaluation of novel β-carbolines as antitumor agents via targeting autophagy in colorectal cancer” (Eur J Med Chem, 2025).
Calls of active or inactive are those of the source. The calls are words filed in the database; no cut-off is given here.

Legend:
[1] = system: HCT-116; assay: Antiproliferative activity against ATG7 knockout human HCT-116 cells assessed as inhibition of cell viability incubated for 24 hrs by CCK8 assay; format: functional, cell-based; settings: HCT-116, 24 h
[2] = system: HCT-116; assay: Induction of apoptosis in human HCT-116 cells assessed as effect on cleaved caspase 9 expression level at 0.5 to 2 uM incubated for 24 hrs by Western blot analysis; format: functional, cell-based; settings: dose 0.5-2 µM
[3] = system: HCT-116; assay: Induction of autophagy in human HCT-116 cells transfected with tandem mRFP-GFP-LC3 plasmid assessed as increase in LC3-II accumulation by Western blot analysis; format: functional, cell-based; settings: time 3-48 hrs
[4] = system: HCT-116; assay: Induction of apoptosis in human HCT-116 cells assessed as effect on cleaved caspase-8 expression level at 0.5 to 2 uM incubated for 24 hrs by Western blot analysis; format: functional, cell-based; settings: dose 0.5-2 µM
[5] = system: HepG2; assay: Antiproliferative activity against human HepG2 cells assessed as inhibition of cell growth incubated for 48 hrs by MTT assay; format: functional, cell-based; settings: HepG2, 48 h
[6] = system: HCT-116; assay: Induction of apoptosis in human HCT-116 cells assessed as effect on cleaved PARP expression level at 0.5 to 2 uM incubated for 24 hrs by Western blot analysis; format: functional, cell-based; settings: dose 0.5-2 µM
[7] = system: HCT-116; assay: Induction of autophagy in human HCT-116 cells transfected with tandem mRFP-GFP-LC3 plasmid assessed as reduction in p62 expression by Western blot analysis; format: functional, cell-based; settings: time 3-48 hrs
[8] = system: HCT-116; assay: Induction of apoptosis in human HCT-116 assessed as viable cells at 1 uM incubated for 24 hrs Annexin V FITC/PI double staining based flow cytometry (Rvb =90.0%); format: functional; settings: read-out: Activity
[9] = system: HCT-116; assay: Upregulation of autophagy pathway related genes expression in human HCT-116 cells at 1 uM incubated for 24 hrs by heat map analysis; format: functional, cell-based
[10] = system: HCT-116; assay: Induction of morphological changes in human HCT-116 cells assessed as suppression of cell growth at 0.5 to 2 uM by microscopic analysis; format: functional, cell-based; settings: dose 0.5-2 µM

With `CCN(CC)CCCNCc1cc2c3ccccc3n(CCCc3ccccc3)c2c(CNCCCN(CC)CC)n1` the IC50 [1] was 6.49 µM, the Activity [2] was “inactive” and the Activity [3] was “Time-dependent-effect”. For the same compound, the Activity [4] was “inactive”, the IC50 [5] was 4.58 µM and the Activity [6] was “inactive”. For the same compound, the Activity [7] was “Time-dependent-effect”, the viability at 1 µM [8] was 84.6% and the Activity [9] was “Active”. The Activity [10] was “Active”.
